{"source": "paper PMC8222254", "about": "“Self-assembly of an anion receptor with metal-dependent kinase inhibition and potent in vitro anti-cancer properties” (Nature Communications, 2021)", "test_in_all_cases": "Chemosensitivity, 96 h continuous exposure, MTT assay", "assay_type_in_all_cases": "cell-based, human", "key": {"PSN1": {"test_system": "PSN1", "in_short": "(§1)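 Growth inhibition is measured by MTT after cells are dosed for 96 h without washout. The 50% growth-reduction concentration is then interpolated from the curves.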"}, "HCT116 p53-/-": {"test_system": "HCT116 p53-/-", "in_short": "(§2)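 Cells seeded at 2 × 10^3/well (GBM1 3 × 10^3/well) and left overnight at 37 °C, then exposed continuously for 96 h to a range of compound concentrations (final DMSO 0.2%). Viability read by MTT, absorbance at 540 nm; IC50 taken from dose-response curves as concentration reducing cell growth by 50%.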"}, "H460": {"test_system": "H460", "in_short": "as §1"}, "MiaPaCa2": {"test_system": "MiaPaCa2", "in_short": "as §2"}, "A549": {"test_system": "A549", "in_short": "as §2"}, "HT-29": {"test_system": "HT-29", "in_short": "as §2"}, "ARPE-19 non-cancer cells": {"test_system": "ARPE-19 non-cancer cells", "in_short": "as §2"}}, "note": "Several values for one entry are separate records, joined by “and”; a condition that tells them apart may be missing. Identical values can stand only once. Like-named read-outs stand apart in the source and are kept apart here."}
{"smiles": "O=S(=O)(O)O.[Zn+2].[Zn+2].[Zn+2].c1ccc(-c2csc(NCCN(CCNc3nc(-c4ccccn4)cs3)CCNc3nc(-c4ccccn4)cs3)n2)nc1.c1ccc(-c2csc(NCCN(CCNc3nc(-c4ccccn4)cs3)CCNc3nc(-c4ccccn4)cs3)n2)nc1", "note": "[[L2Zn3(SO4)]4+]", "values": [{"measurement": "Selectivity index (ARPE19)", "setting": "PSN1; IC50 ARPE-19 / IC50 PSN1", "result": 748.98}, {"measurement": "Selectivity index (MCF10A)", "setting": "PSN1; IC50 MCF10A / IC50 PSN1", "result": 67.38}, {"measurement": "IC50", "setting": "PSN1; PSN1, mean of replicates, read-out: Mean IC50", "result": 226, "unit": "nM"}, {"measurement": "IC50", "setting": "PSN1; PSN1, read-out: Mean IC50 values", "result": 226, "unit": "nM"}, {"measurement": "IC50", "setting": "PSN1; PSN1, single replicate, read-out: IC50 values for each replicate", "result": "217 nM and 199 nM and 261 nM"}, {"measurement": "activity relative to [L2Zn3(PO4)]3+ or [L2Zn3]6+", "setting": "PSN1; PSN1 cell line, anion pre-encapsulated", "result": "significantly more active"}, {"measurement": "Relative potency (+ anion to no anion), Ratio + anion:no anion", "setting": "PSN1; ratio of IC50, PSN1", "result": 0.05}, {"measurement": "Selectivity indices relative to ARPE-19, Ratio + anion:no anion", "setting": "PSN1; ratio of SI (ARPE-19), PSN1", "result": 21.164}, {"measurement": "Selectivity indices relative to MCF10A, Ratio + anion:no anion", "setting": "PSN1; ratio of SI (MCF 10A), PSN1", "result": 1.852}, {"measurement": "IC50", "setting": "HCT116 p53-/-; HCT116 p53-/-, mean of replicates, read-out: Mean IC50", "result": 61, "unit": "nM"}, {"measurement": "IC50", "setting": "HCT116 p53-/-; HCT116 p53-/-, read-out: Mean IC50 values", "result": 61, "unit": "nM"}, {"measurement": "IC50", "setting": "HCT116 p53-/-; HCT116 p53-/-, single replicate, read-out: IC50 values for each replicate", "result": "59 nM and 64 nM and 61 nM"}, {"measurement": "Selectivity index (ARPE19)", "setting": "HCT116 p53-/-; IC50 ARPE-19 / IC50 HCT116 p53-/-", "result": 2774.92}, {"measurement": "Selectivity index (MCF10A)", "setting": "HCT116 p53-/-; IC50 MCF10A / IC50 HCT116 p53-/-", "result": 249.64}, {"measurement": "Relative potency (+ anion to no anion), Ratio + anion:no anion", "setting": "HCT116 p53-/-; ratio of IC50, HCT116 p53-/-", "result": 0.85}, {"measurement": "Selectivity indices relative to ARPE-19, Ratio + anion:no anion", "setting": "HCT116 p53-/-; ratio of SI (ARPE-19), HCT116 p53-/-", "result": 1.271}, {"measurement": "Selectivity indices relative to MCF10A, Ratio + anion:no anion", "setting": "HCT116 p53-/-; ratio of SI (MCF 10A), HCT116 p53-/-", "result": 0.111}, {"measurement": "IC50", "setting": "H460; H460, mean of replicates, read-out: Mean IC50", "result": 233, "unit": "nM"}, {"measurement": "IC50", "setting": "H460; H460, read-out: Mean IC50 values", "result": 233, "unit": "nM"}, {"measurement": "IC50", "setting": "H460; H460, single replicate, read-out: IC50 values for each replicate", "result": "189 nM and 262 nM and 250 nM"}, {"measurement": "Selectivity index (ARPE19)", "setting": "H460; IC50 ARPE-19 / IC50 H460", "result": 726.48}, {"measurement": "Selectivity index (MCF10A)", "setting": "H460; IC50 MCF10A / IC50 H460", "result": 65.36}, {"measurement": "Relative potency (+ anion to no anion), Ratio + anion:no anion", "setting": "H460; ratio of IC50, H460", "result": 0.65}, {"measurement": "Selectivity indices relative to ARPE-19, Ratio + anion:no anion", "setting": "H460; ratio of SI (ARPE-19), H460", "result": 1.663}, {"measurement": "Selectivity indices relative to MCF10A, Ratio + anion:no anion", "setting": "H460; ratio of SI (MCF 10A), H460", "result": 1.128}, {"measurement": "Selectivity index (ARPE19)", "setting": "MiaPaCa2; IC50 ARPE-19 / IC50 MiaPaCa2", "result": 3.29}, {"measurement": "Selectivity index (MCF10A)", "setting": "MiaPaCa2; IC50 MCF10A / IC50 MiaPaCa2", "result": 0.30}, {"measurement": "IC50", "setting": "MiaPaCa2; MiaPaCa2, mean of replicates, read-out: Mean IC50", "result": 51500, "unit": "nM"}, {"measurement": "IC50", "setting": "MiaPaCa2; MiaPaCa2, read-out: Mean IC50 values", "result": 51500, "unit": "nM"}, {"measurement": "IC50", "setting": "MiaPaCa2; MiaPaCa2, single replicate, read-out: IC50 values for each replicate", "result": "52600 nM and 36700 nM and 60800 nM and 55800 nM"}, {"measurement": "Relative potency (+ anion to no anion), Ratio + anion:no anion", "setting": "MiaPaCa2; ratio of IC50, MiaPaCa2", "result": 0.87}, {"measurement": "Selectivity indices relative to ARPE-19, Ratio + anion:no anion", "setting": "MiaPaCa2; ratio of SI (ARPE-19), MiaPaCa2", "result": 1.236}, {"measurement": "Selectivity indices relative to MCF10A, Ratio + anion:no anion", "setting": "MiaPaCa2; ratio of SI (MCF 10A), MiaPaCa2", "result": 0.108}, {"measurement": "IC50", "setting": "A549; A549, mean of replicates, read-out: Mean IC50", "result": 582, "unit": "nM"}, {"measurement": "IC50", "setting": "A549; A549, read-out: Mean IC50 values", "result": 582, "unit": "nM"}, {"measurement": "IC50", "setting": "A549; A549, single replicate, read-out: IC50 values for each replicate", "result": "263 nM and 588 nM and 773 nM and 704 nM"}, {"measurement": "Selectivity index (ARPE19)", "setting": "A549; IC50 ARPE-19 / IC50 A549", "result": 290.84}, {"measurement": "Selectivity index (MCF10A)", "setting": "A549; IC50 MCF10A / IC50 A549", "result": 26.16}, {"measurement": "Relative potency (+ anion to no anion), Ratio + anion:no anion", "setting": "A549; ratio of IC50, A549", "result": 1.44}, {"measurement": "Selectivity indices relative to ARPE-19, Ratio + anion:no anion", "setting": "A549; ratio of SI (ARPE-19), A549", "result": 0.745}, {"measurement": "Selectivity indices relative to MCF10A, Ratio + anion:no anion", "setting": "A549; ratio of SI (MCF 10A), A549", "result": 0.065}, {"measurement": "IC50", "setting": "HT-29; HT29, mean of replicates, read-out: Mean IC50", "result": 238, "unit": "nM"}, {"measurement": "IC50", "setting": "HT-29; HT29, read-out: Mean IC50 values", "result": 238, "unit": "nM"}, {"measurement": "IC50", "setting": "HT-29; HT-29, single replicate, read-out: IC50 values for each replicate", "result": "70 nM and 166 nM and 210 nM and 243 nM and 499 nM"}, {"measurement": "Selectivity index (ARPE19)", "setting": "HT-29; IC50 ARPE-19 / IC50 HT29", "result": 711.22}, {"measurement": "Selectivity index (MCF10A)", "setting": "HT-29; IC50 MCF10A / IC50 HT29", "result": 63.98}, {"measurement": "Relative potency (+ anion to no anion), Ratio + anion:no anion", "setting": "HT-29; ratio of IC50, HT29", "result": 1.41}, {"measurement": "Selectivity indices relative to ARPE-19, Ratio + anion:no anion", "setting": "HT-29; ratio of SI (ARPE-19), HT29", "result": 0.764}, {"measurement": "Selectivity indices relative to MCF10A, Ratio + anion:no anion", "setting": "HT-29; ratio of SI (MCF 10A), HT29", "result": 0.067}, {"measurement": "IC50", "setting": "ARPE-19 non-cancer cells; ARPE-19, mean of replicates, read-out: Mean IC50", "result": 169000, "unit": "nM"}, {"measurement": "IC50", "setting": "ARPE-19 non-cancer cells; ARPE-19, single replicate, read-out: IC50 values for each replicate", "result": "182000 nM and 150000 nM and 176000 nM"}, {"measurement": "IC50", "setting": "ARPE-19 non-cancer cells; ARPE-19 non-cancer, read-out: Mean IC50 values", "result": 169000, "unit": "nM"}, {"measurement": "Relative potency (+ anion to no anion), Ratio + anion:no anion", "setting": "ARPE-19 non-cancer cells; ratio of IC50, ARPE-19", "result": 1.08}]}
